The assay concerns C. elegans. In words: Northern blot analysis of steady-state mRNA levels after cadmium exposure. Type of assay: in vivo, Caenorhabditis elegans. The settings on record: for Fold-change in mRNA levels following cadmium exposure, VL1 (Northern blot): clone VL1 (mtl-1). The protocol:
Growth and isolation of C. elegans—The N2 strain of C. elegans was grown in liquid S medium (0.1M NaCl, 50 mM potassium phosphate, pH 6.0, 5 μg/ml cholesterol, 10 mM potassium citrate, 3 mM CaCl2, 3 mM MgCl2, 50 μM EDTA, 25 μM FeSO4, 10 μM MnCl2, 10 μM ZnSO4 and 1 μM CuSO4) using E. coli OP50 as a food source (Brenner, S. (1974) Genetics 77, 71-94). In experiments where nematodes were exposed to cadmium, the medium was supplemented with 100 μM CdCl2 (Freedman, J. H. et al. (1993) J. Biol. Chem. 268, 2554-2564). C. elegans were grown in the presence of metal for 8 h or 24 h at ˜20° C. Nematodes were then collected following centrifugation at 800×g for 5 min. Pellets were suspended in 5 mM NaCl containing 35% sucrose (final concentration) and viable nematodes were collected from the top of the solution following centrifugation at 1000×g for 5 min at 4° C. Nematodes were then washed three times by suspension in M9 buffer (22 mM KH2PO4, 42 mM Na2HPO4, 85 mM NaCl, 1 mM MgSO4) followed by sedimentation at 800×g. Washed nematode pellets were finally suspended in a small volume of M9 buffer, rapidly frozen in liquid nitrogen and stored at −80° C.
RNA isolation—Total RNA was isolated from mix-stage populations of C. elegans exposed to 100 μM CdCl2 for 8 h and 24 h and control, non-exposed nematodes. Frozen worms were first ground into a fine powder using a liquid nitrogen-cooled mortar and pestle. Powdered C. elegans (200 mg) were then homogenized in 2 ml of TRIzol (GIBCO/BRL). RNA was then collected from the aqueous phase following the addition of chloroform, precipitated by adding isopropyl alcohol and then air-dried. The dried RNA pellet was then dissolved in diethyl pyrocarbonate (DEPC)-treated water. For some experiments, poly(A^+) RNA was subsequently isolated using the Poly(A) Tract System following manufacturer's instructions (Promega).
Northern Blot Analysis-Samples of total RNA (20 μg) or poly(A^+) RNA (2 μg) were denatured in a 2.2M formaldehyde/50% (v/v) formamide buffer and then subjected to denaturing gel electrophoresis on a 1.5% agarose/2.2M formaldehyde gel. Size-fractionated RNAs were then transferred to Nytran membrane (Schleicher and Schuell). Membranes were probed with ^32P-labeled cDNA fragments of the differentially expressed mRNAs. cDNAs to be used as probes were generated by the PCR from the cloned DNA fragments recovered from differential display gels. cDNAs were labeled with [α-^32]dCTP (Amersham) by random-primed labeling. Membranes were hybridized in 6 ×SSC (1×SSC=0.15M sodium chloride, 15 mM sodium citrate, pH 7.0), 1.25× Denhardt's solution, 0.5% sodium dodecyl sulfate (SDS), 300 ng denatured sonicated salmon sperm DNA and heat-denatured probe at 42° C. for 16 h. Following hybridization, membranes were washed at a high stringency of 50° C. for 30 min in 0.1×SSC/0.1% SDS. The amount of probe hybridizing to the RNA was determined by PhosphorImager analysis (Molecular Dynamic System) . After images were obtained, membranes were incubated at 95° C. for 1 h in 0.1% SDS to remove the bound probe. They were then hybridized with a ^32P-labeled C. elegans myosin light-chain probe, which served as a loading control (Freedman, J. H. et al. (1993) J. Biol. Chem. 268, 2554-2564). As a positive control, membranes were also hybridized to a ^32P-labeled C. elegans metallothonein-2 (mtl-2) cDNA probe (Freedman, J. H. et al. (1993) J. Biol. Chem. 268, 2554-2564). Quantification of radioactivity was performed using the ImageQuant program (Molecular Dynamic System). Steady-state levels of mRNA expression were all normalized to that of the constitutively expressed myosin light-chain mRNAs (Freedman, J. H. et al. (1993) J. Biol. Chem. 268, 2554-2564; Cummins, C. et al. (198B) Mol. Cell. Biol 8, 5334-5349).

Where “and” joins values, the source holds several entries; their conditions need not be identical. Equal values may be shown once.

Turning to `[Cl][Cd][Cl]` [cadmium, CdCl2], the “steady-state level of mtl-2 mRNA” value (100 μM CdCl2 for 24 h vs control C. elegans) was “increased”. For the same molecule, where the note is “clone DDRT16, 24 hours, 100 μM CdCl2, value in parenthesis, by Northern blot”, the “Fold-change in mRNA levels following cadmium exposure, DDRT16 (Northern blot)” value stood at 3.5 fold. Further, the “Fold-change in mRNA levels following cadmium exposure, VL1 (Northern blot)” value (8 hours, 100 μM CdCl2, value in parenthesis, by Northern blot) was “(4.7) fold” and the “Fold-change in mRNA levels following cadmium exposure, VL1 (Northern blot)” value (24 hours, 100 μM CdCl2, value in parenthesis, by Northern blot) is “(5.2) fold”. The “Fold-change in mRNA levels following cadmium exposure, VL19 (Northern blot)” value (clone VL19, 24 hours, 100 μM CdCl2, value in parenthesis, by Northern blot) worked out at 2.3 fold. Moreover, the “Fold-change in mRNA levels following cadmium exposure, VL21 (Northern blot)” value (clone VL21, 24 hours, 100 μM CdCl2, value in parenthesis, by Northern blot) was 2 fold and 2.0 fold.

The record behind these values is patent US6916915B1, “Stressor regulated genes” (Duke University, priority 1998, dated 2005).
